The record followed here is article PMC8287028 (Frontiers in Veterinary Science, 2021).

“Also recorded” adds a separate entry of the source.

The test system of the assay is activated partial thromboplastin time. Put plainly: Activated partial thromboplastin time (aPTT) on citrated plasma of dosed dogs. The format is in vivo, dog. On the procedure:
Coagulation assays were performed on platelet-poor, citrated plasma samples by a reference laboratory (Comparative Coagulation Laboratory, Animal Health Diagnostic Center, Ithaca, NY). […] The assay is configured with a bovine activated Factor X reagent that is added in excess to the test plasma and a chromogenic substrate of Factor Xa (STA Liquid anti-Xa, Diagnostica Stago). Residual, uninhibited Factor Xa cleaves the chromogenic substrate such that the inverse of the color change in the reaction mixture is proportional to the drug concentration in the test plasma. […] Assay controls, consisting of human plasma spiked with apixaban (STA Apixaban Controls, Diagnostica Stago) were analyzed before each batch of test samples to confirm assay performance. The apixaban levels in calibrators and controls are defined by the manufacturer from an internal reference assayed by HPLC-MS. […] A mechanical endpoint method (STA Compact, Diagnostica Stago) and human coagulation reagents were used to measure prothrombin time (Thromboplastin LI, Helena Diagnostics, Beaumont, TX) and activated partial thromboplastin time (Dade Actin FS, Dade Behring, Newark, DE). […]

For the molecule `COc1ccc(-n2nc(C(N)=O)c3c2C(=O)N(c2ccc(N4CCCCC4=O)cc2)CC3)cc1` [apixaban], the aPTT versus baseline result is on record as “significantly prolonged” (IV 0.18 mg/kg, at 5 and 15 min post-injection); “not consistently affected; also recorded: did not have a significant effect” (PO 0.2 mg/kg, 0.2 mg/kg).
